# ChEMBL document CHEMBL5550179, “Rutaecarpine-inspired scaffold-hopping strategy and Ullmann cross-coupling based synthetic approach: Identification of pyridopyrimidinone-indole based novel anticancer chemotypes” (Bioorg Med Chem, 2024)
# Calls of active or inactive are those of the source. The calls are words filed in the database; no cut-off is given here.
# Tests used:
# [1] = Antiproliferative activity against human MCF-10A cells assessed as cell growth inhibition incubated for 48 hrs by MTT assay; type: toxicity, cell-based
# HCT-116 [2] = assay: Antiproliferative activity against human HCT-116 cells assessed as cell growth inhibition incubated for 48 hrs by MTT assay; type: functional, cell-based; conditions: HCT-116, 48 h
# A549 [3] = assay: Antiproliferative activity against human A549 cells assessed as cell growth inhibition incubated for 48 hrs by MTT assay; type: functional, cell-based; conditions: A549, 48 h
# MCF7 [4] = assay: Antiproliferative activity against human MCF7 cells assessed as cell growth inhibition incubated for 48 hrs by MTT assay; type: functional, cell-based; conditions: for IC50: Homo sapiens, MCF7, 48 h
# [5] = Selectivity index, ratio of IC50 for antiproliferative activity against human MCF-10A cells to IC50 for antiproliferative activity against human MCF7 cells; type: toxicity, cell-based; conditions: MCF-10A cells and MCF7 cells, read-out: Ratio IC50
# [6] = Antiproliferative activity against human MCF-10A cells assessed as cell viability incubated for 48 hrs by MTT assay relative to control; type: toxicity, cell-based; parameters: concentration or dose not given beside the values; conditions: read-out: Activity
# MCF7 [7] = assay: Antiproliferative activity against human MCF7 cells; type: functional, cell-based
# MCF7 [8] = assay: Antiproliferative activity against human MCF7 cells assessed as reduction in number of colonies incubated for 48 hrs by crystal violet staining based analysis; type: functional, cell-based
# MCF7 [9] = assay: Inhibition of cell migration in human MCF7 cells assessed as reduction in migration rate incubated upto 48 hrs by scratch wound healing assay; type: functional, cell-based
# Tubulin = assay: Inhibition of tubulin polymerization (unknown origin); type: protein-complex assay, Homo sapiens
# NCI-H460 = assay: Antiproliferative activity against human NCI-H460 cells; type: functional, cell-based
# HeLa = assay: Antiproliferative activity against human HeLa cells; type: functional, cell-based
# SW480 = assay: Antiproliferative activity against human SW480 cells; type: functional, cell-based
# A549 [10] = assay: Antiproliferative activity against human A549 cells; type: functional, cell-based
# MGC-803 = assay: Antiproliferative activity against human MGC-803 cells; type: functional, cell-based
# MDA-MB-435 = assay: Antiproliferative activity against human MDA-MB-435 cells; type: functional, cell-based
# HCT-116 [11] = assay: Antiproliferative activity against human HCT-116 cells; type: functional, cell-based
# ACHN = assay: Antiproliferative activity against human ACHN cells; type: functional, cell-based
# HL-60 = assay: Antiproliferative activity against human HL-60 cells; type: functional, cell-based
compound,measurement,setting,value
CC(C)(C)OC(=O)n1c(-c2cc(=O)n3ccccc3n2)c(CCNC(=O)c2ccc(Cl)cc2)c2ccccc21,IC50 at 48 h,[1],> 20 µM
same,IC50,HCT-116 [2],> 20 µM
same,IC50,A549 [3],> 20 µM
same,IC50,MCF7 [4],15.8 µM
same,selectivity ratio,[5],> 2.11
same,viability at 48 h,[6],83.4%
O=c1cc(-c2ccc(Cl)cc2)nc2ccccn12,IC50,MCF7 [7],1.8 µM
COc1ccc2c(c1)c(CCNC(=O)c1ccc(Cl)cc1)c(-c1cc(=O)n3ccccc3n1)n2C(=O)OC(C)(C)C,IC50 at 48 h,[1],> 20 µM
same,IC50,HCT-116 [2],8.55 µM
same,IC50,A549 [3],20 µM
same,IC50,MCF7 [4],14 µM
same,selectivity ratio,[5],> 2.25
same,viability at 48 h,[6],78.6%
O=c1[nH]cc(F)c(=O)[nH]1 [FLUOROURACIL],IC50 at 48 h,[1],19.5 µM
same,IC50,HCT-116 [2],> 20 µM
same,IC50,A549 [3],> 20 µM
same,IC5,MCF7 [4]; time 48 hrs,6.5 µM
same,selectivity ratio,[5],3
same,viability at 48 h,[6],50%
COc1ccc(C(=O)NCCc2c(-c3cc(=O)n4ccccc4n3)n(C(=O)OC(C)(C)C)c3ccccc23)cc1,Activity,MCF7 [8],Active
same,IC50 at 48 h,[1],> 20 µM
same,IC50,HCT-116 [2],11 µM
same,IC50,A549 [3],18.4 µM
same,IC50,MCF7 [4],7.7 µM
same,selectivity ratio,[5],> 3.2
same,viability at 48 h,[6],61.6%
same,inhibition,MCF7 [9],Active
O=C(NCCc1c(-c2cc(=O)n3ccccc3n2)[nH]c2ccccc12)c1ccc(Cl)cc1,IC50,MCF7 [4],> 20 µM
COc1cc(C2=NN(C(N)=O)C(c3cn(C)c4ccc(Br)cc34)C2)cc(OC)c1OC (centres undefined),IC50,Tubulin,2.12 µM
O=C(NCCc1c[nH]c2ccccc12)c1ccc(-c2ccccc2)cc1,IC50,NCI-H460,2 µM
O=C1c2ccccc2C(=O)N1CCc1c(-c2cc(=O)n3ccccc3n2)[nH]c2ccccc12,IC50,MCF7 [4],> 20 µM
O=c1c2ccccc2nc2n1CCc1c-2[nH]c2ccccc12 [RUTAECARPINE],IC50 at 48 h,[1],> 20 µM
same,IC50,A549 [3],> 20 µM
same,IC50,MCF7 [4],> 20 µM
same,selectivity ratio,[5],1.2
same,viability at 48 h,[6],60.2%
same,IC50,HeLa,26 µM
O=c1c2cc(Cl)ccc2nc2n1CCc1c-2[nH]c2ccccc12,IC50,HeLa,7 µM
CN1c2ccccc2C(=O)N2CCc3c([nH]c4ccccc34)C21 (centres undefined),IC50,SW480,10 µM
same,IC50,A549 [10],1.3 µM
same,IC50,MGC-803,12 µM
O=C1c2cc(Cl)ccc2SC2c3[nH]c4ccc(O)cc4c3CCN12 (centres undefined),IC50,MDA-MB-435,< 0.003 µM
same,IC50,HCT-116 [11],< 0.003 µM
COc1ccc2[nH]c(-c3cc(=O)n4ccccc4n3)c(CCNC(=O)c3ccc(Cl)cc3)c2c1,IC50,MCF7 [4],> 20 µM
COc1ccc2[nH]c(-c3cc(=O)n4ccccc4n3)c(CCNC(=O)c3cc(OC)c(OC)c(OC)c3)c2c1,IC50,MCF7 [4],> 20 µM
O=C(O)c1ccccc1C(=O)NCCc1c(-c2cc(=O)n3ccccc3n2)[nH]c2ccccc12,IC50,MCF7 [4],> 20 µM
COc1ccc2[nH]c(-c3cc(=O)n4ccccc4n3)c(CCN3C(=O)c4ccccc4C3=O)c2c1,IC50,MCF7 [4],> 20 µM
CN1c2ccccc2C(=O)N2CCc3c([nH]c4ccc(Cl)cc34)C21 (centres undefined),IC50,ACHN,1 µM
same,IC50,MCF7 [7],1 µM
COc1ccc2c(c1)c(CCN1C(=O)c3ccccc3C1=O)c(-c1cc(=O)n3ccccc3n1)n2C(=O)OC(C)(C)C,IC50,MCF7 [4],> 20 µM
COc1cc(C(=O)NCCc2c(-c3cc(=O)n4ccccc4n3)[nH]c3ccccc23)cc(OC)c1OC,IC50,MCF7 [4],> 20 µM
CC(C)(C)OC(=O)n1c(-c2cc(=O)n3ccccc3n2)c(CCN2C(=O)c3ccccc3C2=O)c2ccccc21,IC50,MCF7 [4],> 20 µM
O=c1c2ccccc2nc2n1CCc1c-2[nH]c2c(Cl)c(Cl)ccc12,IC50,HL-60,0.15 µM
COc1ccc(C(=O)NCCc2c(-c3cc(=O)n4ccccc4n3)[nH]c3ccc(OC)cc23)cc1,IC50,MCF7 [4],> 20 µM
